In patent US20250188110A1, “SPECIFIC SMALL MOLECULE INHIBITORS THAT BLOCK KMT9 METHYLTRANSFERASE ACTIVITY AND FUNCTION” (ALBERT-LUDWIGS-UNIVERSITÄT FREIBURG, priority 2021, published 2025) one finds Kd, ΔTm and IC50 data, which are given here for 20 compounds.

pIC50, pKd: −log10 of the molar value.

The target in test [1] is T1, KMT9 (Homo sapiens, UniProt Q9Y5N5).
T1 sequence (Q9Y5N5 1-214): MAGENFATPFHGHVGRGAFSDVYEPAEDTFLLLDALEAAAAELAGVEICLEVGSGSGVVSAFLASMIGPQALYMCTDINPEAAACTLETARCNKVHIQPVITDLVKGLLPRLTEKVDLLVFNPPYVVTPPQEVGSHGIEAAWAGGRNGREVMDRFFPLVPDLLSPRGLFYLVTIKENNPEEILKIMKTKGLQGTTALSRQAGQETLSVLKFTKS
T1 sequence (Q9UI30 1-120 isoform Q9UI30-2 partner): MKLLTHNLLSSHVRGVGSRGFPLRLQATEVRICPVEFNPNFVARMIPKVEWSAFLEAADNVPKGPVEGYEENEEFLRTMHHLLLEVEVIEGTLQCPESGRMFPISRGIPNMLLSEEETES
The test can be described thus: Microscale thermophoresis (MST) KMT9 binding. The settings on record: microscale thermophoresis, His-tag labelled KMT9 (20 nM); read-out: MST. In short, it runs like this: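 His-tagged KMT9 (20 nM), RED-Tris-NTA labelled, titrated with varying compound concentrations in 25 mM HEPES pH 7.5, 100 mM NaCl, 1 mM DTT, 0.05% Tween. MST at 40% MST and 100% LED power, Nano-RED excitation; Kd binned A ≤10 nM, B 10–100, C 100–1000, D >1000 nM.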

For test [2], the target named is T1, KMT9. Briefly: KMT9 thermal shift assay (SyproOrange). In kind it is binding. The note with it: ΔTm; 500 µM compound, 2 μM KMT9, 5X SO; read-out: Thermal shift. The gist of the method:
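Recombinant KMT9 was incubated with compound and SyproOrange at 25° C in 50 mM BTP pH 8.5, 1 mM MgCl2, 1 mM DTT. It was then heated from 20° C to 95° C at 1° C per 15 s with fluorescence read each step. Tm came from a Boltzmann sigmoidal fit; ΔTm relative to DMSO control, binned in 5 K ranges.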

Test [3] has as its target T1, KMT9. The test can be described thus: KMT9 methyltransferase inhibition assay, 3H-SAM scintillation (entries 1-154). In kind it is biochemical. The settings on record: entries 1-154: 3H-SAM assay, 25 nM KMT9, 5 μM ETF1. The gist of the method: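 Final 25 nM KMT9, 5 μM ETF1 (residues 140-275), 0.3 μM 3H-SAM plus 0.7 μM SAM in pH 8.5 BTP buffer, 2 h at 30° C. TCA-quenched, filter-washed, methylation counted by scintillation; % inhibition vs DMSO and no-enzyme controls, IC50 from four-parameter fit.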

Broadly, the pIC50 is −log10 of the IC50, conventionally taken in molar units.

Consider `CNc1ncnc2c1ccn2[C@@H]1C[C@H](C(=O)NCCCNCc2cccc(Oc3ccccc3)c2)[C@@H](O)[C@H]1O` [353 (257), (1S,2R,3S,4R)-2,3-dihydroxy-4-(4-(methylamino)-7H-pyrrolo[2,3-d]pyrimidin-7-yl)-N-(3-((3-phenoxybenzyl)amino)propyl) cyclopentane-1-carboxamide], for which, in test [1], the pKd was 6.00 to 7.00. Besides, the ΔTm at 500 µM in test [2] was in the range of 10 to 15 °C. The compound also had a pIC50 in test [3] of 5.00 to 6.00.

On to `CNc1ncnc2c1ccn2[C@@H]1C[C@H](C(=O)NCC2CCCCN2)[C@@H](O)[C@H]1O` (stereo partly drawn) [350 (254), (1S,2R,3S,4R)-2,3-dihydroxy-4-(4-(methylamino)-7H-pyrrolo[2,3-d]pyrimidin-7-yl)-N-(piperidin-2-ylmethyl) cyclopentane-1-carboxamide], for which, in test [1], the pKd is less than 6.00. Further, the ΔTm at 500 µM in test [2] was no more than 10 °C. The pIC50 in test [3] is less than 5.00.

As to `CNc1ncnc2c1ccn2[C@@H]1C[C@H](CN(CCCNCCc2cccc(Oc3ccccc3)c2)C(C)C)[C@@H](O)[C@H]1O` [362 (266), (1S,2R,3R,5R)-3-((isopropyl(3-((3-phenoxyphenethyl)amino)propyl)amino)methyl)-5-(4-(methylamino)-7H-pyrrolo[2,3-d]pyrimidin-7-yl) cyclopentane-1,2-diol], in test [1], the pKd is 6.00 to 7.00. Also, the ΔTm at 500 µM in test [2] is 10 to 15 °C. Besides, the pIC50 in test [3] was 5.00 to 6.00.

With `CNc1ncnc2c1ccn2[C@@H]1C[C@H](CN2CCC23CCCNC3)[C@@H](O)[C@H]1O` (stereo partly drawn) [447 (319), (1S,2R,3R,5R)-3-{1,6-Diazaspiro[3.5]nonan-1-ylmethyl}-5-[4-(methylamino)pyrrolo[2,3-d]pyrimidin-7-yl]cyclopentane-1,2-diol], the pKd in test [1] is less than 6.00. The ΔTm at 500 µM in test [2] was no more than 10 °C. The compound further gave a pIC50 in test [3] of less than 5.00.

Take `CNc1ncnc2c1ccn2[C@@H]1C[C@H](CN2CCC23CNC3)[C@@H](O)[C@H]1O` [445 (317), (1S,2R,3R,5R)-3-((1,6-Diazaspiro[3.3]heptan-1-yl)methyl)-5-(4-(methylamino)-7H-pyrrolo[2,3-d]pyrimidin-7-yl) cyclopentane-1,2-diol]: in test [1], the pKd is less than 6.00. For the same compound, the ΔTm at 500 µM in test [2] is no more than 10 °C. Further, the negative-log IC50 (pIC50) in test [3] is less than 5.00.

With `CNc1ncnc2c1ccn2[C@@H]1C[C@H](CN(CCCNCCc2cccc(Oc3ccccc3)c2)CC2CC2)[C@@H](O)[C@H]1O` [360 (270)], the pKd in test [1] is 6.00 to 7.00. Further, the ΔTm at 500 µM in test [2] is no more than 10 °C. For the same compound, the pIC50 in test [3] is less than 5.00.

On to `Nc1ncnc2c1c(Br)cn2[C@@H]1C[C@H](CNCCCNCCc2ccccc2F)[C@@H](O)[C@H]1O` [338 (242), (1R,2S,3R,5R)-3-(4-amino-5-bromo-7H-pyrrolo[2,3-d]pyrimidin-7-yl)-5-(((3-((2-fluorophenethyl)amino)propyl)amino)methyl) cyclopentane-1,2-diol], for which the pKd in test [1] is 7.00 to 8.00. Also, the ΔTm at 500 µM in test [2] lay within 15 to 20 °C. Moreover, in test [3], the negative logarithm of the IC50 (pIC50) was 6.00 to 7.00.

As to `Nc1ncnc2c1c(-c1ncc[nH]1)cn2[C@@H]1C[C@H](CNCCCNCCc2ccccc2)[C@@H](O)[C@H]1O` [473 (347), (1R,2S,3R,5R)-3-(4-Amino-5-(1H-imidazol-2-yl)-7H-pyrrolo[2,3-d]pyrimidin-7-yl)-5-(((3-(phenethylamino)propyl)amino)methyl) cyclopentane-1,2-diol], in test [1], the pKd was 7.00 to 8.00. In test [2], the ΔTm at 500 µM lay within 15 to 20 °C. The compound further showed a pIC50 in test [3] of 6.00 to 7.00.

In the case of `C=Cc1cn([C@@H]2C[C@H](CNCCCNCCc3ccccc3)[C@@H](O)[C@H]2O)c2ncnc(N)c12` [464 (338), (1R,2S,3R,5R)-3-(4-amino-5-vinyl-7H-pyrrolo[2,3-d]pyrimidin-7-yl)-5-(((3-(phenethylamino)propyl)amino)methyl) cyclopentane-1,2-diol], the pKd in test [1] is 7.00 to 8.00. Besides, the ΔTm at 500 µM in test [2] fell in the range of 10 to 15 °C. The compound also showed a negative logarithm of the IC50 (pIC50) in test [3] of 5.00 to 6.00.

Regarding `Nc1ncnc2c1c(Br)cn2[C@@H]1C[C@H](CNCCCNCCc2ccc(F)cc2)[C@@H](O)[C@H]1O` [319 (220), (1R,2S,3R,5R)-3-(4-amino-5-bromo-7H-pyrrolo[2,3-d]pyrimidin-7-yl)-5-(((3-((4-fluorophenethyl)amino)propyl)amino)methyl) cyclopentane-1,2-diol], the pKd in test [1] was 7.00 to 8.00. Besides, the ΔTm at 500 µM in test [2] lay within 15 to 20 °C. The pIC50 in test [3] was 6.00 to 7.00.

For `Nc1ncnc2c1ncn2[C@@H]1O[C@H](C(=O)NCCCNCCc2ccccc2)[C@@H](O)[C@H]1O` [301 (198), (2S,3S,4R,5R)-5-(6-amino-9H-purin-9-yl)-3,4-dihydroxy-N-(3-(phenethylamino)propyl) tetrahydrofuran-2-carboxamide], the pKd in test [1] was 6.00 to 7.00. Moreover, the ΔTm at 500 µM in test [2] is no more than 10 °C. Further, the pIC50 in test [3] is less than 5.00.

Take `CNc1ncnc2c1ccn2[C@@H]1C[C@H](CN2CC(CNCCc3ccc4ccccc4c3)C2)[C@@H](O)[C@H]1O` [360 (264), (1R,2S,3R,5R)-3-(4-(methylamino)-7H-pyrrolo[2,3-d]pyrimidin-7-yl)-5-((3-(((2-(naphthalen-2-yl)ethyl)amino)methyl)azetidin-1-yl)methyl) cyclopentane-1,2-diol]: the pKd in test [1] is less than 6.00. Moreover, the ΔTm at 500 µM in test [2] is no more than 10 °C. The pIC50 in test [3] was less than 5.00.

`Cn1ccc(-c2cn([C@@H]3C[C@H](CNCCCNCCc4ccccc4)[C@@H](O)[C@H]3O)c3ncnc(N)c23)n1` [476 (350), (1R,2S,3R,5R)-3-(4-Amino-5-(1-methyl-1H-pyrazol-3-yl)-7H-pyrrolo[2,3-d]pyrimidin-7-yl)-5-(((3-(phenethylamino)propyl)amino)methyl) cyclopentane-1,2-diol]: the pKd in test [1] is 6.00 to 7.00. Moreover, the ΔTm at 500 µM in test [2] fell in the range of 15 to 20 °C. This compound also showed a pIC50 in test [3] of 6.00 to 7.00.

As for `CNc1ncnc2c1ccn2[C@@H]1C[C@H](CN(CCCNCCc2ccccc2)c2ccn(C)n2)[C@@H](O)[C@H]1O` [443 (315), (1R,2S,3R,5R)-3-[4-(Methylamino)pyrrolo[2,3-d]pyrimidin-7-yl]-5-{[(1-methylpyrazol-3-yl)({3-[(2-phenylethyl)amino]propyl})amino]methyl}cyclopentane-1,2-diol], in test [1], the pKd is less than 6.00. Also, the ΔTm at 500 µM in test [2] is no more than 10 °C. Besides, in test [3], the negative logarithm of the IC50 (pIC50) is less than 5.00.

For the compound `CNc1ncnc2c1ccn2[C@@H]1C[C@H](CS(=O)(=O)CCNCCc2ccccc2)[C@@H](O)[C@H]1O` [433 (305), (1R,2S,3R,5S)-3-(4-(Methylamino)-7H-pyrrolo[2,3-d]pyrimidin-7-yl)-5-(((2-(phenethylamino)ethyl)sulfonyl)methyl) cyclopentane-1,2-diol], the pKd in test [1] was less than 6.00. Moreover, the ΔTm at 500 µM in test [2] was no more than 10 °C. The negative-log IC50 (pIC50) in test [3] was less than 5.00.

Regarding `CNCCC(=O)N(C)C[C@H]1C[C@@H](n2ccc3c(NC)ncnc32)[C@H](O)[C@@H]1O` [417 (288), N-(((1R,2R,3S,4R)-2,3-dihydroxy-4-(4-(methylamino)-7H-pyrrolo[2,3-d]pyrimidin-7-yl)cyclopentyl)methyl)-N-methyl-3-(methylamino)propanamide], in test [1], the pKd is less than 6.00. Also, in test [2], the ΔTm at 500 µM is no more than 10 °C. This compound had a pIC50 in test [3] of less than 5.00.

Turning to `CNc1ncnc2c1ccn2[C@@H]1C[C@H](CN2CCC[C@]23CCCNC3)[C@@H](O)[C@H]1O` (single isomer, unassigned) [449 (321)], the pKd in test [1] was less than 6.00. For the same compound, the ΔTm at 500 µM in test [2] is no more than 10 °C. This compound also gave a pIC50 in test [3] of less than 5.00.

With `CCc1cn([C@@H]2C[C@H](CNCCCNCCc3ccccc3)[C@@H](O)[C@H]2O)c2ncnc(N)c12` [465 (339), (1R,2S,3R,5R)-3-{4-amino-5-ethylpyrrolo[2,3-d]pyrimidin-7-yl}-5-[{{3-[(2-phenylethyl)amino]propyl}amino)methyl]cyclopentane-1,2-diol], the pKd in test [1] was 6.00 to 7.00. In test [2], the ΔTm at 500 µM was in the range of 10 to 15 °C. The compound also gave a pIC50 in test [3] of 5.00 to 6.00.

`CNc1ncnc2c1ccn2[C@@H]1C[C@H](CN2CCC[C@@]23CCCNC3)[C@@H](O)[C@H]1O` (single isomer, unassigned) [450 (322)]: the pKd in test [1] is less than 6.00. In addition, the ΔTm at 500 µM in test [2] was no more than 10 °C. Also, the pIC50 in test [3] is less than 5.00.

Turning to `Nc1ncnc2c1c(-c1nccs1)cn2[C@@H]1C[C@H](CNCCCNCCc2ccc(F)cc2)[C@@H](O)[C@H]1O` [Compound 602, (1R,2S,3R,5R)-3-[4-Amino-5-(1,3-thiazol-2-yl)pyrrolo[2,3-d]pyrimidin-7-yl]-5-{[(3-{[2-(4-fluorophenyl)ethyl]amino}propyl)amino]methyl}cyclopentane-1,2-diol], the pKd in test [1] was 7.00 to 8.00. Besides, the ΔTm at 500 µM in test [2] fell in the range of 15 to 20 °C. This compound showed a pIC50 in test [3] of 6.00 to 7.00.
